From patent US5853731A, “Thromboxane A2 Receptor antagonism and antioxidant action of cinnamophilin and its derivatives, their pharmaceutical compositions and uses” (National Science Council, priority 1997, dated 1998)
Read-outs that look alike come from different tables or passages of the source.

Legend:
cAMP formation = cAMP formation caused by arachidonic acid (AA); assay type: cell-based; conditions: for cAMP: caused by AA
rat thoracic aorta = target: T1, rat thoracic aorta (Rattus norvegicus, UniProt P34978); assay: Rat aortic contraction caused by U-46619; assay type: cell-based, Wistar rat; conditions: for activity at 0.3 µM / activity at 1 µM / activity at 3 µM / activity at 10 µM: rat, read-out: Contraction (% of maximal contraction); for activity at 0.3 µM: cinnamophilin 0.3 μM; for activity at 1 µM: cinnamophilin 1 μM; for activity at 3 µM: cinnamophilin 3 μM; for activity at 10 µM: cinnamophilin 10 μM
T1 construct: The thoracic aorta was isolated and excess fat and connective tissue were removed; from tissue; host or cells: thoracic aorta rings of Wistar rats
T1 sequence (P34978 1-341): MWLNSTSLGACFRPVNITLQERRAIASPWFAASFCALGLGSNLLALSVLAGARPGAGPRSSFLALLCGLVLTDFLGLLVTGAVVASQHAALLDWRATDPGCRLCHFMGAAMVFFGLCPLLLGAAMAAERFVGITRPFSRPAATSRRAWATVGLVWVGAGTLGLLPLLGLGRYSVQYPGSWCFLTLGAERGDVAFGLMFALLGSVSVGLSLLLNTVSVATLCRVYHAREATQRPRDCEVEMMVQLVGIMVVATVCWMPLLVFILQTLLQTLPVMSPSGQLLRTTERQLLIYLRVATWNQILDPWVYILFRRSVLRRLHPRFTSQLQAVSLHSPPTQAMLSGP
Description: A. Rat Aortic Contraction
Wistar rats of either sex weighing 250 g to 300 g were killed by a blow to the head. The thoracic aorta was isolated and excess fat and connective tissue were removed. Vessels were cut into rings of about 5 mm in length and mounted in organ baths containing 5 ml Krebs solution of the following composition (mM): NaCl (118.4), KCl (4.7), CaCl (1.9), MgSO4 (1.2), KH2 PO4 (1.2), NaHCO3 (25.0) and glucose (11.7). The tissue bath solution was maintained at 37° C. and gassed with 95% O2 :5% CO2 mixture. Two stainless steel hooks were inserted into the aortic lumen, one was fixed while the other was connected to a transducer. Aortae were equilibrated in the medium for 90 min with three changes of Krebs solution and maintained under an optimal tension of 1 g before specific experimental protocols were initiated.
Contraction was recorded isometrically via a force-displacement transducer connected to a Grass polygraph. Aortae were allowed to preincubate for 15 minutes with cinnamophilin before generating the cumulative concentration-response curve with each agonist for 15-30 min at 3 min intervals. Results are expressed as a percentage of the maximal control response for each agonist.

Kb (rat thoracic aorta; against U-46619, 0.5% DMSO as control, read-out: pA2, rat aortic contraction induced by U-46619 (converted)): 50.1 nM
activity at 0.3 µM (rat thoracic aorta; U-46619 0.005 μM): 0%
activity at 0.3 µM (rat thoracic aorta; U-46619 0.01 μM): 8 ± 2%
activity at 0.3 µM (rat thoracic aorta; U-46619 0.02 μM): 16 ± 4.9%
activity at 0.3 µM (rat thoracic aorta; U-46619 0.05 μM): 35 ± 2%
activity at 0.3 µM (rat thoracic aorta; U-46619 0.1 μM): 52 ± 3%
activity at 0.3 µM (rat thoracic aorta; U-46619 0.2 μM): 65 ± 4%
activity at 0.3 µM (rat thoracic aorta; U-46619 0.5 μM): 79 ± 2%
activity at 0.3 µM (rat thoracic aorta; U-46619 1 μM): 85 ± 4%
activity at 0.3 µM (rat thoracic aorta; U-46619 2 μM): 92 ± 4%
activity at 1 µM (rat thoracic aorta; U-46619 0.02 μM): 3%
activity at 1 µM (rat thoracic aorta; U-46619 0.05 μM): 11 ± 2%
activity at 1 µM (rat thoracic aorta; U-46619 0.1 μM): 22 ± 3%
activity at 1 µM (rat thoracic aorta; U-46619 0.2 μM): 35 ± 3.2%
activity at 1 µM (rat thoracic aorta; U-46619 0.5 μM): 53 ± 3.1%
activity at 1 µM (rat thoracic aorta; U-46619 1 μM): 55 ± 4%
activity at 1 µM (rat thoracic aorta; U-46619 2 μM): 81 ± 4%
activity at 1 µM (rat thoracic aorta; U-46619 5 μM): 88 ± 3%
activity at 3 µM (rat thoracic aorta; U-46619 0.05 μM): 0%
activity at 3 µM (rat thoracic aorta; U-46619 0.1 μM): 8 ± 3.7%
activity at 3 µM (rat thoracic aorta; U-46619 0.2 μM): 15 ± 4.3%
activity at 3 µM (rat thoracic aorta; U-46619 0.5 μM): 34 ± 5.6%
activity at 3 µM (rat thoracic aorta; U-46619 1 μM): 50 ± 5.6%
activity at 3 µM (rat thoracic aorta; U-46619 2 μM): 65 ± 5%
activity at 3 µM (rat thoracic aorta; U-46619 5 μM): 81 ± 3%
activity at 3 µM (rat thoracic aorta; U-46619 10 μM): 90 ± 3%
activity at 10 µM (rat thoracic aorta; U-46619 0.2 μM): 6 ± 4.3%
activity at 10 µM (rat thoracic aorta; U-46619 0.5 μM): 15 ± 3.9%
activity at 10 µM (rat thoracic aorta; U-46619 1 μM): 31 ± 3.8%
activity at 10 µM (rat thoracic aorta; U-46619 2 μM): 45 ± 3%
activity at 10 µM (rat thoracic aorta; U-46619 5 μM): 65 ± 5%
activity at 10 µM (rat thoracic aorta; U-46619 10 μM): 86 ± 4%
SMILES: COc1cc(CC(C)C(C)C(=O)c2ccc(O)c(OC)c2)ccc1O (stereo not drawn) [Compound 1, cinnamophilin]
cAMP level (cAMP formation; 0.03-10 μM, AA): increase PGE2 and cAMP levels
cAMP (cAMP formation; conc 1 μM): 22 ± 3 pmol/mL
cAMP (cAMP formation; conc 3 μM): 29 ± 3 pmol/mL
cAMP (cAMP formation; conc 10 μM): 35 ± 2 pmol/mL
